Non-standard residues stand in square brackets, D forms with d. Residues, ends and D or L forms follow the SMILES beside them. dArg(NO2) = N=C(NCCC[C@@H](N)C(=O)O)N[N+](=O)[O-]
Experiments:
Homo sapiens [1] = species on record: Homo sapiens; test: Selectivity ratio of IC50 for recombinant GluN2A/GluN2D receptor (unknown origin) to IC50 for GluN2C/GluN2D (unknown origin) receptor
Huntingtin = Huntingtin (Homo sapiens, UniProt P42858); test: Inhibition of HD exon 1 fusion protein with 51 glutamine residues (unknown origin) aggregation expressed in Escherichia coli SURE after 16 hrs by Western blotting analysis
[2] = biological target: Microtubule-associated protein tau (Homo sapiens, UniProt P10636); test: Inhibition of recombinant tau (unknown origin) aggregation
[3] = biological target: Nitric oxide synthase, inducible (Homo sapiens, UniProt P35228); test: Inhibition of human iNOS
Nitric oxide synthase 3 = biological target: T1, Nitric oxide synthase 3 (Homo sapiens, UniProt P29474); test: Inhibition of human eNOS
T1 sequence (P29474 whole entry): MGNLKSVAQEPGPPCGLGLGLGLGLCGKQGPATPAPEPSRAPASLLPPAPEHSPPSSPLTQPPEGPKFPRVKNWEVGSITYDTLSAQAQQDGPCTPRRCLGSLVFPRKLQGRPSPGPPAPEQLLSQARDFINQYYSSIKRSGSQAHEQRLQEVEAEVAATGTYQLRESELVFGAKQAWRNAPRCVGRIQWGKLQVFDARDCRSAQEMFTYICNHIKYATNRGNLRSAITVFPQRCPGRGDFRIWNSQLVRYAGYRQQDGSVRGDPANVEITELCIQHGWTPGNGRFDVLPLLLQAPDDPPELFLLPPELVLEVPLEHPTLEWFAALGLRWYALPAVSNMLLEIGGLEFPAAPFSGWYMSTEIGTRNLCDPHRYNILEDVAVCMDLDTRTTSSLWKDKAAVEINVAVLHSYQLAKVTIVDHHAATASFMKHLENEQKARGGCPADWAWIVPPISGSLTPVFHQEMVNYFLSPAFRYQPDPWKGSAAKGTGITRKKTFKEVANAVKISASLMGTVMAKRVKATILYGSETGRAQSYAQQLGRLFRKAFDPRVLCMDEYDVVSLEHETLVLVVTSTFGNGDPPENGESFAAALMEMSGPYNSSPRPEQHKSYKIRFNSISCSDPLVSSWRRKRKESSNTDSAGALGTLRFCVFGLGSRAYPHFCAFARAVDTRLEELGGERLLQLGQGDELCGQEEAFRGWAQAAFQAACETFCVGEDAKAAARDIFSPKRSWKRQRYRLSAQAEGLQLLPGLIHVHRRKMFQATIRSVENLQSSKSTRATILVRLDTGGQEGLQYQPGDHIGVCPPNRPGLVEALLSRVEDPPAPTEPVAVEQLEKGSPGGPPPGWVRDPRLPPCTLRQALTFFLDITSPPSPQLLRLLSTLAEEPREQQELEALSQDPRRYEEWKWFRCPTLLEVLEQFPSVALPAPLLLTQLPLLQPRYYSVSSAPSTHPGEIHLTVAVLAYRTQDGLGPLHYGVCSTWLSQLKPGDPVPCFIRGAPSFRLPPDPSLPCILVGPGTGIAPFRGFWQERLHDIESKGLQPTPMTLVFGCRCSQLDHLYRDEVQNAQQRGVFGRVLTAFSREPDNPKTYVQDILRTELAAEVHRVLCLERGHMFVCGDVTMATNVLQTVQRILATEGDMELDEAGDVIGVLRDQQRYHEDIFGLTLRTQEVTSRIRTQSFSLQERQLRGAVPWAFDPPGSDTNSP

Nitric oxide synthase 1 [4] = biological target: Nitric oxide synthase 1 (Homo sapiens, UniProt P29475); test: Inhibition of human nNOS
[5] = Neuroprotective activity in rat Cortical neuron assessed as protection from glutamate-induced neurotoxicity treated after glutamate-challenge by lactate dehydrogenase assay; assay type: functional; details: cortical neurone
Homo sapiens [6] = species on record: Homo sapiens; test: Selectivity ratio of IC50 for human eNOS to IC50 for human nNOS
Mus musculus = species on record: Mus musculus; test: Neuroprotective activity in amyotrophic lateral sclerosis mouse model expressing human SOD1 G93A mutant assessed as increase in life span relative to control; assay type: functional
Canis familiaris = test: Antialzheimer activity in Beagle dog assessed as reduction in CSF amyloid beta level at 5 mg/kg, po after 9 hrs relative to control; assay type: functional, Canis lupus familiaris; set-up: scale not given: the % may be the effect or the level left
[7] = Selectivity ratio of Ki for mouse iNOS to Ki for rat nNOS
Nitric oxide synthase 1 [8] = biological target: Nitric oxide synthase 1 (Rattus norvegicus, UniProt P29476)
[9] = Selectivity ratio of Ki for bovine eNOS to Ki for rat nNOS
Homo sapiens [10] = species on record: Homo sapiens; test: Selectivity ratio of IC50 for NTD-deleted GluN1/NTD-deleted GluN2D receptor (unknown origin) to IC50 for NTD-deleted GluN1/NTD-deleted GluN2A receptor (unknown origin)
[11] = Inhibition of NMDA receptor in mouse medium spiny neurons by whole cell patch clamp assay
L-type calcium channel = L-type calcium channel (Mus musculus, UniProt Q01815+Q02789+Q99246+Q9JIS7); test: Inhibition of Voltage-dependent L-type calcium channel in mouse medium spiny neurons by whole cell patch clamp assay
[12] = Inhibition of bovine nNOS; set-up: species or system Bos taurus
Homo sapiens [13] = test: Neuroprotective activity in Parkinson disease patient assessed as reduction of L-DOPA-induced dyskinesia administered as infusion treated prior to L-DOPA-challenge relative to control; assay type: functional; set-up: scale not given: the % may be the effect or the level left

Chain of Nitric oxide synthase 1 (Homo sapiens, UniProt P29475) (P29475 whole entry): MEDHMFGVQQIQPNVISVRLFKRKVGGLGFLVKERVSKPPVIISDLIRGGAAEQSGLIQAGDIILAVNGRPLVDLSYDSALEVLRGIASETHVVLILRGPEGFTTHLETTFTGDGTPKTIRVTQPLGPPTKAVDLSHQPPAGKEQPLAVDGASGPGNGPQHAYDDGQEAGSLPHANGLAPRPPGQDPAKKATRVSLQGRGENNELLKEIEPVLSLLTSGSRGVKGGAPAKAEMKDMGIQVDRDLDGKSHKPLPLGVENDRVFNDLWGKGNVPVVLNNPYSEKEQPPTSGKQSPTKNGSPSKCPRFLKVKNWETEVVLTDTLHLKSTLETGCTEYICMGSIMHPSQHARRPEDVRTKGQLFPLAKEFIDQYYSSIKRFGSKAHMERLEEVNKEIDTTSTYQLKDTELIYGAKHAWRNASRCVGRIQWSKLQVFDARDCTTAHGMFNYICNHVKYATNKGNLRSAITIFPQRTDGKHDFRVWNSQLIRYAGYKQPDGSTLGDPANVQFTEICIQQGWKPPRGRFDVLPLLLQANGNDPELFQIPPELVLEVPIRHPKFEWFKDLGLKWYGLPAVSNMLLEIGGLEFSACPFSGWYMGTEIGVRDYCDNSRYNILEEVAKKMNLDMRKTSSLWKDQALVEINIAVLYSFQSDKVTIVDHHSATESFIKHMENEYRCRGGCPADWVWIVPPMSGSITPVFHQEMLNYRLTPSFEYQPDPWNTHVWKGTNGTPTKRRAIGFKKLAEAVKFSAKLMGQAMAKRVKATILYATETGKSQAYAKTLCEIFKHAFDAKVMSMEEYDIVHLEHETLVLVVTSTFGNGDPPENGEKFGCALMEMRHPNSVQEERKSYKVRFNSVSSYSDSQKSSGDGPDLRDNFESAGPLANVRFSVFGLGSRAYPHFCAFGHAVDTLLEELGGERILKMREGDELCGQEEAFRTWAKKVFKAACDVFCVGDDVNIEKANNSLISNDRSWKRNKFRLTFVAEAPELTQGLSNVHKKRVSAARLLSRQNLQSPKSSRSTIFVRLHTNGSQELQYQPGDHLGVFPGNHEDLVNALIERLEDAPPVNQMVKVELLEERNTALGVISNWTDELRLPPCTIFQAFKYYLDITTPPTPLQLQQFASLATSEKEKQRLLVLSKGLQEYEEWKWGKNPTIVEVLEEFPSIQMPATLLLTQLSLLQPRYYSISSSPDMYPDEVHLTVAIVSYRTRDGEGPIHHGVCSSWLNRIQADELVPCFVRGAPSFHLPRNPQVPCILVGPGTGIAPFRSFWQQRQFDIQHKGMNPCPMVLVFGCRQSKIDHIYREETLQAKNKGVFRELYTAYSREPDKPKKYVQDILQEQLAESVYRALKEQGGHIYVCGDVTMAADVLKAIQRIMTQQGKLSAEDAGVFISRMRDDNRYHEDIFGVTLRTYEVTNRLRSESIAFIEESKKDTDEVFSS
Chain of Huntingtin (P42858 whole entry, looked up, the tested form may be a part): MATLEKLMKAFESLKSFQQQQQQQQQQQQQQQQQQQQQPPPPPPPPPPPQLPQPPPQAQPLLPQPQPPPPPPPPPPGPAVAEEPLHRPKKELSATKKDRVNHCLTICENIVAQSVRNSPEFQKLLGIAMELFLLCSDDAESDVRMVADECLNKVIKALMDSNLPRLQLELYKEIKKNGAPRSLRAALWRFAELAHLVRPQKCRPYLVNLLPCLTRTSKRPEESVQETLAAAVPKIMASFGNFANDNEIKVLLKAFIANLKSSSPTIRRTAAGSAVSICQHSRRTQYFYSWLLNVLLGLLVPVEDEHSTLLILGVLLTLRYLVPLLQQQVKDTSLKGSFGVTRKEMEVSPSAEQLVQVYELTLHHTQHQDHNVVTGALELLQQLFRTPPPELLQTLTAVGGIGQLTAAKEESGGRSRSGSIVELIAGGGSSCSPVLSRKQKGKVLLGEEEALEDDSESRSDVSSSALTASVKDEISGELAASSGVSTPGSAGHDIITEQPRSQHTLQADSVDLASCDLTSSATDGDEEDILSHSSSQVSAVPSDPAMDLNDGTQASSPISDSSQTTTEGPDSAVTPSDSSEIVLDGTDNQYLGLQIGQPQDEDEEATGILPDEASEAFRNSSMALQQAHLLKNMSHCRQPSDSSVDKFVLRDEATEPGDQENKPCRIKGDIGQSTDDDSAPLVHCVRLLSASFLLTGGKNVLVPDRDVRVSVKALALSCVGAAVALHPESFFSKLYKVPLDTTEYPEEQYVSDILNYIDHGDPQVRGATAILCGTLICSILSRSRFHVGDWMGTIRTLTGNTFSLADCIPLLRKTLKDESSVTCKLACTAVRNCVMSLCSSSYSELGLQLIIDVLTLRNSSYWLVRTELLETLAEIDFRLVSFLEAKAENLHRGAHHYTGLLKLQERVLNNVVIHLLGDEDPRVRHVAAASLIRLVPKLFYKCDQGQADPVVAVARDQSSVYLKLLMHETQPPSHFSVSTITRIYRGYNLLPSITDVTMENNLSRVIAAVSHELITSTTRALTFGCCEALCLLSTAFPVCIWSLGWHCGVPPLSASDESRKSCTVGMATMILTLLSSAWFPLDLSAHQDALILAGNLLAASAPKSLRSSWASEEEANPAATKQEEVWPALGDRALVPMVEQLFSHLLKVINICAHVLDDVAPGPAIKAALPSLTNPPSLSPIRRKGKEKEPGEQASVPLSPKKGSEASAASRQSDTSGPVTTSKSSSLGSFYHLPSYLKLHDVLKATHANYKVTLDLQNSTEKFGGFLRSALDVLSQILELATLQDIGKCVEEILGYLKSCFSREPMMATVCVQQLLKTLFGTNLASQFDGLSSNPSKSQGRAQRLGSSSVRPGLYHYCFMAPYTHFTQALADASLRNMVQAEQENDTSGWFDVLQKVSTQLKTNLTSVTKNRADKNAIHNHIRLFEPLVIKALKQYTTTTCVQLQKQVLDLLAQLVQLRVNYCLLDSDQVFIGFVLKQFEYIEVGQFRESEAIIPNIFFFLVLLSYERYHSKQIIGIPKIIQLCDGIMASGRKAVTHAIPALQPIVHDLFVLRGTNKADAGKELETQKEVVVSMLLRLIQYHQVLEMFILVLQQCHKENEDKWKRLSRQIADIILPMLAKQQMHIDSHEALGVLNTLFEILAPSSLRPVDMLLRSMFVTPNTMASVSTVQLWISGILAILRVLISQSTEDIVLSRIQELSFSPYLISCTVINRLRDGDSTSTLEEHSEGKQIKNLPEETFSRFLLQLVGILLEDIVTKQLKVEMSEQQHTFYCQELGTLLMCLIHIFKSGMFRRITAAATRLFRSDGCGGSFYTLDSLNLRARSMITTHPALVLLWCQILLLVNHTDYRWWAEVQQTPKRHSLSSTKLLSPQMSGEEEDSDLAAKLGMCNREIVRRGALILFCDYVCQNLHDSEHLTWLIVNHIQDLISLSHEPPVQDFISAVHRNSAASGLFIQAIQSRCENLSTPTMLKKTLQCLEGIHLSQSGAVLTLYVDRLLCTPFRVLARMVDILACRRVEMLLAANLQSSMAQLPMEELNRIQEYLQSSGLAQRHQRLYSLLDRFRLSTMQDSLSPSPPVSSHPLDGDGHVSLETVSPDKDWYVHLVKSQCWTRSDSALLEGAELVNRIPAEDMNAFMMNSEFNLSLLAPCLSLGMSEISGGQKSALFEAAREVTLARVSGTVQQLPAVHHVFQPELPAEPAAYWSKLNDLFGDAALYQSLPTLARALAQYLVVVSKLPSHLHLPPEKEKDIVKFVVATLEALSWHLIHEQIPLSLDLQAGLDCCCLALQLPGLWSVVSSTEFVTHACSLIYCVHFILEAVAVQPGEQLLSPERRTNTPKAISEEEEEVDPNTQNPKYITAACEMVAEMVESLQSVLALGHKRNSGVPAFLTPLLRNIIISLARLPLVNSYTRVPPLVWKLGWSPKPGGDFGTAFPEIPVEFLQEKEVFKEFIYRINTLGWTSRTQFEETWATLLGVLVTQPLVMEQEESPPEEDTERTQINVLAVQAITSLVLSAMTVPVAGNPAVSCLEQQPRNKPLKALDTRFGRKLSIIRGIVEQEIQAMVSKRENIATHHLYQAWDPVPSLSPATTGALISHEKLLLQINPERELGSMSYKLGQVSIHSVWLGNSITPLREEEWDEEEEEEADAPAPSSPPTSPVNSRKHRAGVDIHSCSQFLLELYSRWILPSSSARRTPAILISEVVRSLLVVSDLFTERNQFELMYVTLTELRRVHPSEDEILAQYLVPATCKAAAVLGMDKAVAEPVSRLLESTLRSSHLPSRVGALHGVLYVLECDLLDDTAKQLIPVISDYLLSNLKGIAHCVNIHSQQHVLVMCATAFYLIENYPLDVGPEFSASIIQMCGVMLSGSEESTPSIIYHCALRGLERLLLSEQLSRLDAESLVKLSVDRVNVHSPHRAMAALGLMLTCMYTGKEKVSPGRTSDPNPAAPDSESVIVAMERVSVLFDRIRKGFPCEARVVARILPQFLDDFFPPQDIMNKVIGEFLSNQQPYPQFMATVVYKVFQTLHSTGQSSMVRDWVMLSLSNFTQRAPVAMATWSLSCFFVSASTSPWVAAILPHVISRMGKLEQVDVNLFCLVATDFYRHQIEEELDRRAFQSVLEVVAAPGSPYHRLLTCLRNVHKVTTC

Which Ratio IC50 (Homo sapiens [1]) does the source give for `Cc1ccc2[nH]c(=O)c(C3=NN(C(=O)CCC(=O)O)C(c4ccc(Br)cc4)C3)c(-c3ccccc3)c2c1` (stereo not given) here?
The Ratio IC50 was greater than 50.

With `COC(=O)c1ccc(C(=O)Nc2nc3ccc(C(=O)Nc4ccccc4)cc3s2)cc1` as the compound, how does the IC50 (Huntingtin) read?
Its IC50 is 1200 nM.

For `Cc1cc2nc3ccc(N(C)C)cc3[s+]c2cc1N` [TOLONIUM CHLORIDE], which Ki [2] is on record?
The Ki was 69 nM.

What does the source list for `NC(=Nc1ccc(CCNCCc2cccc(Cl)c2)cc1)c1cccs1`?
IC50 [3]: 5000 nM; IC50 (Nitric oxide synthase 3): 3500 nM; IC50 (Nitric oxide synthase 1 [4]): 35 nM

With `C[C@@H](CN1CCC(Cc2ccccc2)CC1)[C@@H](O)c1ccc(O)cc1` as the compound, how does the IC50 [5] read?
The IC50 was 400 nM.

Which Ratio IC50 (Homo sapiens [6]) does the source give for `CC(=O)CN1CCN(CCc2ccc(-c3cccc(N)n3)cc2)CC1` here?
The Ratio IC50 was 6.

And the IC50 (Nitric oxide synthase 1 [4])?
Its IC50 is 140 nM.

With `[O-][n+]1cccc(/C(Cl)=N/OC[C@H](O)CN2CCCCC2)c1` [ARIMOCLOMOL] as the compound, how does the Activity (Mus musculus) read?
The Activity was 22%.

With `C[C@@]1(c2cc(-c3cncnc3)c(F)cc2F)CCSC(N)=N1` [LY-2811376] as the compound, how does the Activity (Canis familiaris) read?
The Activity was 70%.

Which Ratio Ki [7] does the source give for `COC(=O)[C@@H](CCCNC(=N)N[N+](=O)[O-])NC(=O)[C@H](N)Cc1ccccc1` (H-[dF]-[dArg(NO2)]-OMe) here?
The Ratio Ki was 1800.

What about the Ki (Nitric oxide synthase 1 [8]) of the same compound?
Its Ki is 1900 nM.

What about the Ratio Ki [9] of the same compound?
The Ratio Ki was 2.6.

For `N=C(Nc1ccc(CCNCCc2cccc(Cl)c2)cc1)c1cccs1`, which Ratio IC50 (Homo sapiens [6]) is on record?
Its Ratio IC50 is 100.

Which Ratio IC50 (Homo sapiens [10]) does the source give for `O=C(O)c1cc2cc(Br)ccc2oc1=O` here?
The Ratio IC50 was 23.

What does the source list for `Cc1ccc2c(c1)c1c(n2CCc2ccc(C)nc2)CCN(C)C1` [LATREPIRDINE]?
IC50 [11]: 10000 nM; IC50 (L-type calcium channel): 50000 nM

With `N/N=C(\N)NCCC[C@H](N)C(=O)O` as the compound, how does the Ki [12] read?
The Ki was 300 nM.

What about the Ratio Ki [7] of the same compound?
Its Ratio Ki is 10.

What about the Ratio Ki [9] of the same compound?
Its Ratio Ki is 8.3.

With `C[C@@H]([C@@H](O)c1ccc(O)cc1)N1CCC(O)(c2ccccc2)CC1` [TRAXOPRODIL] as the compound, how does the Activity (Homo sapiens [13]) read?
The Activity was 30%.

Which IC50 [5] does the source give for `CC(C(O)c1ccc(O)cc1)N1CCC(Cc2ccccc2)CC1` (stereo not given) [IFENPRODIL] here?
Its IC50 is 3500 nM.

What does the source list for `C=CNC(=N)NCCC[C@H](N)C(=O)O`?
Ki [12]: 200 nM; Ratio Ki [7]: 11; Ratio Ki [9]: 35

With `CN(C)CCOc1ccc(-c2cccc(N)n2)c2c1CCCC2` as the compound, how does the Ratio IC50 (Homo sapiens [6]) read?
The Ratio IC50 was 50.

What about the IC50 (Nitric oxide synthase 1 [4]) of the same compound?
The IC50 was 70 nM.

For `N=C(NCCC[C@H](N)C(=O)O)N[N+](=O)[O-]` [NITROARGININE], which Ratio Ki [7] is on record?
The Ratio Ki was 293.

What about the Ratio Ki [9] of the same compound?
The Ratio Ki was 11.
